One test has as its system Pyricularia oryzae. The experiment in a line: Antifungal activity against Pyricularia oryzae at 150 uM. It counts as functional.
Test [1] relates to Rhizoctonia solani. The experiment in a line: Antifungal activity against Rhizoctonia solani at 150 uM. Type of test: functional.
The subject of a further test is Phytophthora capsici. Kind of test: Antifungal activity against Phytophthora capsici at 150 uM. Type of test: functional.
The subject of test [2] is Rhizoctonia solani. Kind of test: Antifungal activity against Rhizoctonia solani. Type of test: functional, organism-based.
For another test, the system named is Fusarium graminearum. Kind of test: Antifungal activity against Fusarium graminearum at 150 uM. It counts as functional.
For test [3], the system named is Sclerotinia sclerotiorum. The experiment in a line: Antifungal activity against Sclerotinia sclerotiorum. Type of test: functional, organism-based.
Test [4] has as its system Sclerotinia sclerotiorum. Kind of test: Antifungal activity against Sclerotinia sclerotiorum at 150 uM. It counts as functional.
The next test deals with MCF7. The experiment in a line: Antiproliferative activity against human MCF7 cells assessed as inhibition of cell proliferation incubated for 72 hrs by MTT assay. It counts as functional, cell-based. To be noted: MCF7, 72 h.
The next test concerns HepG2. Kind of test: Antiproliferative activity against human HepG2 cells assessed as inhibition of cell proliferation incubated for 72 hrs by MTT assay. It counts as functional, cell-based. The note with it: HepG2, 72 h. Background: Tetrazolium dyes change colour on reduction, which living cells bring about.

Bounds are passed on as bounds.

Regarding `O=C(Nc1ccccc1-c1ccc(Cl)cc1)c1cccnc1Cl` [BOSCALID], the inhibition (usually the drop in the measured response relative to a control, in per cent) at 150 µM in the test on Pyricularia oryzae turned out to be 74%; in the test on Rhizoctonia solani [1] it was 93%; in the test on Phytophthora capsici it was 23%; with Fusarium graminearum, 27%; in the test on Sclerotinia sclerotiorum [4], 79%. The results for the EC50 with Rhizoctonia solani [2] and in the test with Sclerotinia sclerotiorum [3] were 1.62 µM and 0.75 µM, respectively.

In the case of `CC1(C)CCC[C@]2(C)[C@@H](Cc3cc(C(=O)O)ccc3O)[C@](C)(O)CC[C@@H]12`, the inhibition at 150 µM with Pyricularia oryzae came to 60%; in the test on Rhizoctonia solani [1] it was 85%; with Phytophthora capsici it was 62%; in the test on Fusarium graminearum, 56%; with Sclerotinia sclerotiorum [4], 84%. The 50% effective concentration (EC50) (in general, the concentration giving half of the maximal effect) in the test with MCF7 was 50 µM; in the test on HepG2 it was above 50 µM; in the test with Rhizoctonia solani [2], 22.5 µM; with Sclerotinia sclerotiorum [3], 22.2 µM.

As for `CC1(C)CCC[C@]2(C)[C@@H](Cc3c(O)cccc3O)[C@](C)(O)CC[C@@H]12`, the inhibition at 150 µM in the test on Pyricularia oryzae came out at 15%; in the test with Rhizoctonia solani [1], 88%; in the test on Phytophthora capsici it was 50%; with Fusarium graminearum it was 49%; in the test on Sclerotinia sclerotiorum [4], 84%. Further, the concentration giving a half-maximal response (EC50) in the test on MCF7 turned out to be 16 µM; in the test with HepG2, 13.9 µM; in the test on Rhizoctonia solani [2], 29.3 µM; with Sclerotinia sclerotiorum [3], 26.7 µM.

With `Cc1cc(O)cc(O)c1C[C@@H]1[C@@]2(C)CCCC(C)(C)[C@@H]2CC[C@@]1(C)O`, the inhibition at 150 µM is 65% with Pyricularia oryzae; 92% in the test with Rhizoctonia solani [1]; 29% in the test on Phytophthora capsici; 56% in the test on Fusarium graminearum; 82% in the test with Sclerotinia sclerotiorum [4]. Further, the EC50 in the test with MCF7 is 11.3 µM; in the test on HepG2, 11.1 µM; with Rhizoctonia solani [2], 35.2 µM; in the test on Sclerotinia sclerotiorum [3] it was 40.4 µM.

For `CC1(C)CCC[C@]2(C)[C@@H](Cc3ccc(O)cc3O)[C@](C)(O)CC[C@@H]12`, the inhibition at 150 µM was found to be 9% in the test on Pyricularia oryzae; 91% in the test with Rhizoctonia solani [1]; 37% with Phytophthora capsici; 41% in the test with Fusarium graminearum; 81% in the test on Sclerotinia sclerotiorum [4]. Besides, the EC50 in the test with MCF7 was 11.9 µM; with HepG2, 10.2 µM; in the test on Rhizoctonia solani [2], 41.7 µM; in the test on Sclerotinia sclerotiorum [3] it was 15.2 µM.

Regarding `CC1(C)CCC[C@@]2(C)C1CC[C@@]1(C)Oc3ccc(OC(=O)Nc4ccc(F)cc4)cc3C[C@@H]12` (stereo partly specified), the inhibition at 150 µM in the test on Pyricularia oryzae, in the test with Rhizoctonia solani [1], in the test with Phytophthora capsici, in the test on Fusarium graminearum and with Sclerotinia sclerotiorum [4] was below 60% each time.

As to `CC1(C)CCC[C@@]2(C)C1CC[C@@]1(C)Oc3ccc(-c4ccsc4)cc3C[C@@H]12` (stereo partly specified), the inhibition at 150 µM in the test with Pyricularia oryzae, in the test with Rhizoctonia solani [1], in the test on Phytophthora capsici, with Fusarium graminearum and with Sclerotinia sclerotiorum [4] was below 60% each time.

For the molecule `COc1ccc(-c2ccc3c(c2)C[C@H]2[C@@](C)(CCC4C(C)(C)CCC[C@@]42C)O3)cc1` (stereo partly specified), the inhibition at 150 µM in the test with Pyricularia oryzae, in the test on Rhizoctonia solani [1], in the test on Phytophthora capsici, in the test with Fusarium graminearum and with Sclerotinia sclerotiorum [4] was below 60% in each case.

For `CC(C)=CCOc1ccc2c(c1)C[C@@H]1[C@@]3(C)CCCC(C)(C)[C@@H]3CC[C@@]1(C)O2`, the inhibition at 150 µM in the test with Pyricularia oryzae, with Rhizoctonia solani [1], in the test with Phytophthora capsici, in the test on Fusarium graminearum and in the test with Sclerotinia sclerotiorum [4] was below 60% throughout.

As for `CC1(C)CCC[C@]2(C)[C@H]3Cc4cc(OC(=O)c5cccc(F)c5)ccc4O[C@]3(C)CC[C@@H]12`, the inhibition at 150 µM in the test with Pyricularia oryzae, in the test on Rhizoctonia solani [1], in the test with Phytophthora capsici, in the test with Fusarium graminearum and in the test with Sclerotinia sclerotiorum [4] was below 60% in each case.

Take `Cc1ccc(O)c(C[C@@H]2[C@@]3(C)CCCC(C)(C)[C@@H]3CC[C@@]2(C)O)c1`: the inhibition at 150 µM in the test on Pyricularia oryzae was -5%; in the test on Rhizoctonia solani [1] it was -12%; in the test on Phytophthora capsici, 1%; in the test with Fusarium graminearum it was -4%; in the test on Sclerotinia sclerotiorum [4], 8%.

In the case of `CC1(C)CCC[C@]2(C)[C@H]3Cc4cc(Oc5ccccn5)ccc4O[C@]3(C)CC[C@@H]12`, the inhibition at 150 µM in the test on Pyricularia oryzae, in the test on Rhizoctonia solani [1], in the test with Phytophthora capsici, in the test on Fusarium graminearum and in the test on Sclerotinia sclerotiorum [4] was below 60% in each case.

`CC1(C)CCC[C@]2(C)[C@H]3Cc4cc(OC(=O)c5ccccc5)ccc4O[C@]3(C)CC[C@@H]12`: the inhibition at 150 µM in the test with Pyricularia oryzae, in the test on Rhizoctonia solani [1], with Phytophthora capsici, in the test with Fusarium graminearum and with Sclerotinia sclerotiorum [4] was below 60% in each case.

With `CC1(C)CCC[C@@]2(C)C1CC[C@@]1(C)Oc3ccc(O)c(Cl)c3C[C@@H]12` (stereo partly specified), the inhibition at 150 µM in the test on Pyricularia oryzae, in the test with Rhizoctonia solani [1], in the test on Phytophthora capsici, with Fusarium graminearum and in the test with Sclerotinia sclerotiorum [4] was below 60% in each case.

Regarding `CC1(C)CCC[C@]2(C)[C@@H](Cc3cc(O)ccc3O)[C@](C)(O)CC[C@@H]12`, the inhibition at 150 µM in the test on Pyricularia oryzae was determined as 28%; in the test on Rhizoctonia solani [1] it was 48%; in the test on Phytophthora capsici, 28%; in the test with Fusarium graminearum it was 39%; in the test with Sclerotinia sclerotiorum [4] it was 39%. Also, the EC50 in the test on MCF7 is 50 µM; in the test with HepG2 it was above 50 µM; with Rhizoctonia solani [2], above 150 µM; in the test on Sclerotinia sclerotiorum [3], above 150 µM.

Turning to `C#CCOc1ccc2c(c1)C[C@@H]1[C@@]3(C)CCCC(C)(C)[C@@H]3CC[C@@]1(C)O2`, the inhibition at 150 µM in the test with Pyricularia oryzae, in the test on Rhizoctonia solani [1], in the test with Phytophthora capsici, in the test with Fusarium graminearum and in the test on Sclerotinia sclerotiorum [4] was below 60% in each case.

For `CC1(C)CCC[C@@]2(C)C1CC[C@@]1(C)Oc3ccc(-c4cnc5ccccc5c4)cc3C[C@@H]12` (stereo partly specified), the inhibition at 150 µM in the test on Pyricularia oryzae, in the test on Rhizoctonia solani [1], in the test on Phytophthora capsici, in the test on Fusarium graminearum and in the test with Sclerotinia sclerotiorum [4] was below 60% throughout.

As for `CC1(C)CCC[C@]2(C)[C@H]3Cc4cc(OC(=O)c5cccnc5Cl)ccc4O[C@]3(C)CC[C@@H]12`, the inhibition at 150 µM with Pyricularia oryzae, with Rhizoctonia solani [1], with Phytophthora capsici, with Fusarium graminearum and with Sclerotinia sclerotiorum [4] was below 60% in each case.

Turning to `Cc1cc(O)c(C[C@@H]2[C@@]3(C)CCCC(C)(C)[C@@H]3CC[C@@]2(C)O)c(O)c1` [ALBACONOL], the inhibition at 150 µM in the test with Pyricularia oryzae was 7%; in the test on Rhizoctonia solani [1], 49%; in the test on Phytophthora capsici, 30%; with Fusarium graminearum, 43%; in the test with Sclerotinia sclerotiorum [4] it was 72%. Also, the 50% effective concentration (EC50) was 10.1 µM in the test on MCF7, 10.4 µM with HepG2, above 150 µM in the test with Rhizoctonia solani [2] and 24.4 µM in the test with Sclerotinia sclerotiorum [3].

Take `CC1(C)CCC[C@]2(C)[C@@H](Cc3cccc(O)c3O)[C@](C)(O)CC[C@@H]12`: the inhibition at 150 µM in the test with Pyricularia oryzae worked out at 24%; with Rhizoctonia solani [1] it was 42%; in the test with Phytophthora capsici, 24%; with Fusarium graminearum, 36%; with Sclerotinia sclerotiorum [4], 42%.

For `C=CC(=O)Oc1ccc2c(c1)C[C@@H]1[C@@]3(C)CCCC(C)(C)[C@@H]3CC[C@@]1(C)O2`, the inhibition at 150 µM in the test on Pyricularia oryzae, in the test on Rhizoctonia solani [1], with Phytophthora capsici, in the test with Fusarium graminearum and in the test with Sclerotinia sclerotiorum [4] was below 60% in each case.

(Values after ChEMBL document CHEMBL5131382, “Facile and divergent optimization of chromazonarol enabled the identification of simplified drimane meroterpenoids as novel pharmaceutical leads” (Eur J Med Chem, 2022).)
